Values of other authors in patent US20250381197A1, “Regimen for Treating Amyotrophic Lateral Sclerosis Having Onset 24 Months Prior to Treatment” (Woolsey Pharmaceuticals, Inc., priority 2022, published 2025).
Where two headings read alike, the source gives them in different places.

Experiments:
[1] = 1-hydroxy (M3) metabolite; cited from earlier work
[2] = system: ALS patients; conditions: cited from earlier work
[3] = system: ALS patients; conditions: 6-month study; ALS onset between 3 and 36 months; 30 mg twice a day; cited from earlier work
[4] = system: human ALS patients; conditions: 30 mg intravenously twice daily over 20 consecutive working days; 3 patients; cited from earlier work

In the case of `O=S(=O)(c1cccc2c(O)nccc12)N1CCCNCC1` [M3], the half-life [1] is listed as “about 8 hours”.

For `CC1=NN(c2ccccc2)C(=O)C1` [edaravone], the primary endpoint ([2]; enrollment narrowed to patients diagnosed two years or less (Tanaka 2016a)) is given as “met the primary endpoint”, the primary endpoint ([2]; enrollment of three years or less (Abe 2017)) is given as “did not meet the primary endpoint” and the “treatment effect between placebo and edaravone” value ([2]; severe ALS patients, disease onset of less than three years (Tanaka 2016b)) is given as “failed to demonstrate any treatment effect”.

In the case of `Cl.O=S(=O)(c1cccc2cnccc12)N1CCCNCC1` [Fasudil, Hexahydro-1-(5-isoquinolinesulfonyl)-1H-1,4-diazepine monohydrochloride hemihydrate], the disease modification [3] is given as “did not result in any disease modification” and the “outcome of compassionate use” value [4] is given as “no conclusive results beyond safety”.
